Data set [1] deals with T1, GSK-3β (AA 1-420) (Homo sapiens, UniProt P49841).
T1 construct: GSK-3β (AA 1-420)
Briefly: Ki determination for the inhibition of GSK-3 (coupled enzyme system). The format is biochemical. The settings on record: 20 μM ATP, 20 nM GSK-3β, 30° C. An outline of the steps:
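GSK-3β (AA 1-420, 20 nM) was run in a pyruvate kinase/LDH-coupled NADH assay in 100 mM HEPES pH 7.5, 10 mM MgCl2, 25 mM NaCl, 1 mM DTT, 1.5% DMSO, with 300 μM phosphopeptide substrate. Compound (0.002–30 μM) was preincubated 10 min at 30° C, then 20 μM ATP was added.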

For data set [2], the target named is T2, human Src kinase (Homo sapiens, UniProt P12931).
T2 construct: full length recombinant human Src kinase (from Upstate Biotechnology, cat. no. 14-117); purchased Upstate Biotechnology 14-117; host or cells: baculo viral cells
T2 sequence (P12931 whole entry): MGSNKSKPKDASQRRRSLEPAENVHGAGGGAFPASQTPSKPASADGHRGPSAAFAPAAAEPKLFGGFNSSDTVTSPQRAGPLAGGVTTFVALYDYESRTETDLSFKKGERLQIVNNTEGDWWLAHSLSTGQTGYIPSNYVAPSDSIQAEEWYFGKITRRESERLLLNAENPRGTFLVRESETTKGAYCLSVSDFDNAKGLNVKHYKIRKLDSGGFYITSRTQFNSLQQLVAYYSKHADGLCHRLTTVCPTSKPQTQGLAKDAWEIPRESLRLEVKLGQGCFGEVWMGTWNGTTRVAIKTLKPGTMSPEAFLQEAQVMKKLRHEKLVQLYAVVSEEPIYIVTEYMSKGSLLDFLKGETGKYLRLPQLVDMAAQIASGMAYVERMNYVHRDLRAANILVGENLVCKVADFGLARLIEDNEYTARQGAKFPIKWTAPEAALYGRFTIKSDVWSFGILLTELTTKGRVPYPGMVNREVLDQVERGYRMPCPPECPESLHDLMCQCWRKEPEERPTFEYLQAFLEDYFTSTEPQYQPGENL
Briefly: SRC inhibition assay (radioactivity-based or spectrophotometric assay). The settings on record: recombinant human Src kinase, assay A or B. The format is biochemical. As to the method: The compounds were evaluated as inhibitors of human Src kinase using either a radioactivity-based assay or spectrophotometric assay. The compounds were assayed as inhibitors of full length recombinant human Src kinase (from Upstate Biotechnology, cat. no. 14-117) expressed and purified from baculo viral cells. […] P-0275). […] In a typical assay, all the reaction components with the exception of ATP were pre-mixed and aliquoted into assay plate wells. […] The assay plate was incubated at 30° C. for 10 min before initiating the reaction with ^33P-ATP. After 20 min of reaction, the reactions were quenched with 150 μl of 10% trichloroacetic acid (TCA) containing 20 mM Na3PO4. The quenched samples were then transferred to a 96-well filter plate (Whatman, UNI-Filter GF/F Glass Fiber Filter, cat no. 7700-3310) installed on a filter plate vacuum manifold. Filter plates were washed four times with 10% TCA containing 20 mM Na3PO4 and then 4 times with methanol. 200 μl of scintillation fluid was then added to each well. The plates were sealed and the amount of radioactivity associated with the filters was quantified on a TopCount scintillation counter. The radioactivity incorporated was plotted as a function of the inhibitor concentration. The data was fitted to a competitive inhibition kinetics model to get the Ki for the compound. The ADP produced from ATP by the human recombinant Src kinase-catalyzed phosphorylation of poly Glu-Tyr substrate was quanitified using a coupled enzyme assay (Fox et al (1998) Protein Sci 7, 2249). In this assay one molecule of NADH is oxidised to NAD for every molecule of ADP produced in the kinase reaction. The disappearance of NADH can be conveniently followed at 340 nm. […] In a typical assay, all the reaction components with the exception of ATP were pre-mixed and aliquoted into assay plate wells. […] The absorbance change at 340 nm with time, the rate of the reaction, was monitored on a molecular devices plate reader. The data of rate as a function of the inhibitor concentration was fitted to competitive inhibition kinetics model to get the Ki for the compound.

Data set [3] addresses T3, Aurora-2 (Homo sapiens, UniProt O14965).
T3 sequence (O14965 1-403): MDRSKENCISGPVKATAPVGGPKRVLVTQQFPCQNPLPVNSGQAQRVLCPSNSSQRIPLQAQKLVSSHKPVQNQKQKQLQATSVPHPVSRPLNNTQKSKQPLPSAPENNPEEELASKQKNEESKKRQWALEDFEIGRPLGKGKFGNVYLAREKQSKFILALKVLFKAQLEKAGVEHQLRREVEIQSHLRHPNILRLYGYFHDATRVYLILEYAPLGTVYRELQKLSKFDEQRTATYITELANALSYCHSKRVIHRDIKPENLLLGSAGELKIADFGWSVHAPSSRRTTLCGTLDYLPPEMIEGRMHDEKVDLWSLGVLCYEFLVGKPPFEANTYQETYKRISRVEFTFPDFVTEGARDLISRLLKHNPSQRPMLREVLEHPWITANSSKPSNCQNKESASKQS
Put plainly: Ki determination for the inhibition of Aurora-2 (coupled enzyme assay). The format is biochemical. The settings on record: 70 nM Aurora-2, 30° C. An outline of the steps: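 Ki came from reaction rates plotted against inhibitor concentration, with rates taken as A340 decrease over 5 min at 30° C. Enzyme (70 nM final) was added after 10 min compound preincubation; stock buffer held […], 800 μM LRRASLG, PK/LDH coupling, pH 7.5.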

Here are results for 20 compounds from patent publication US6653300B2, “Pyrazole compounds useful as protein kinase inhibitors” (Vertex Pharmaceuticals Incorporated, priority 2000, dated 2003).

For orientation: pKi means the Ki on a negative log10 scale, so that one unit is a factor of ten. In general, melting point refers to the temperature of the solid-liquid transition.

pKi: −log10 of the molar value. Where two headings read alike, the source gives them in different places.

T1 sequence (P49841 whole entry, the tested form may be a part): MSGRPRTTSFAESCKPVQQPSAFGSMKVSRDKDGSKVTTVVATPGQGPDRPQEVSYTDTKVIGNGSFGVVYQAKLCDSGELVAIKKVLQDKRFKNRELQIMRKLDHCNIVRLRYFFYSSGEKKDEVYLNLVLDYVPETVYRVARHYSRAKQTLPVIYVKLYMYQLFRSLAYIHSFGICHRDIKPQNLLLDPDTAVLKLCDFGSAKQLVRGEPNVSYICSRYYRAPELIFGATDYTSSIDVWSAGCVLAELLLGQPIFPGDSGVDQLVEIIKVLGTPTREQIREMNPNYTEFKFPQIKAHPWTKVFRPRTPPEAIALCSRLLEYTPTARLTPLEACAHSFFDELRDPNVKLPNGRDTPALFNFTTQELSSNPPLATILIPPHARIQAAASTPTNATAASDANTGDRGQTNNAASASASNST

`Cc1cc(Nc2cc(N3CCCCC3)nc(SCc3cccc(Cl)c3)n2)n[nH]1` [IIIa-34, [2-(3-Chloro-benzylsulfanyl)-6-(piperidin-1-yl)-pyrimidin-4-yl]-(5-methyl-2H-pyrazol-3-yl)-amine]: the melting point was 234 to 235 °C. Moreover, the pKi in data set [1] is 6.00 to 7.00. The pKi in data set [2] (read-out: Ki value for SRC) is 5.22 to 6.00.
`COCCNc1cc(Nc2cc(C)[nH]n2)nc(SCc2ccc(S(=O)(=O)N3CCOCC3)cc2)n1` [IIIa-36, {6-(2-Methoxy-ethylamino)-2-[4-(morpholinesulfonyl)-benzylsulfanyl]-pyrimidin-4-yl}-(5-methyl-2H-pyrazol-3-yl)-amine] yielded a melting point of 193 to 195 °C. In data set [1], this compound had a pKi of 5.15 to 6.00. Besides, the pKi in data set [2] (read-out: Ki value for SRC) was 5.22 to 6.00.
In turn, `Cc1cc(Nc2cc(N3CCN(C)CC3)nc(SCc3ccc(S(=O)(=O)N4CCOCC4)cc3)n2)n[nH]1` [IIIa-37, {6-(4-methylpiperazin-1-yl)-2-[4-(morpholinesulfonyl)-benzylsulfanyl]-pyrimidin-4-yl}-(5-methyl-2H-pyrazol-3-yl)-amine] came in with a melting point of 206 to 207 °C. For the same compound, the pKi in data set [1] is 6.00 to 7.00. Further, the pKi in data set [2] (read-out: Ki value for SRC) is 5.22 to 6.00.
On to `Cc1cc(Nc2nc(Sc3ccccc3N)nc3ccccc23)n[nH]1` [IIa-20, [2-(2-Aminophenylsulfanyl)-quinazolin-4-yl]-(5-methyl-2H-pyrazol-3-yl)-amine], for which the pKi is 6.00 to 7.00 in data set [1], 6.00 to 7.00 in data set [3] and 5.22 to 6.00 in data set [2] (read-out: Ki value for SRC).
The compound `c1ccc(Sc2nc(Nc3cc(C4CC4)[nH]n3)c3ccccc3n2)cc1` [IIa-21, (5-Cyclopropyl-2H-pyrazol-3-yl)-(2-phenylsulfanyl-quinazolin-4-yl)-amine] returned a melting point of 233 to 236 °C. Also, the pKi in data set [1] was over 7.00. In data set [3], this compound showed a pKi of over 7.00. Also, the pKi in data set [2] (read-out: Ki value on SRC) is over 7.00.
As to `Cc1cccc(Sc2nc(Nc3cc(C4CC4)[nH]n3)c3ccccc3n2)c1` [IIa-23, (5-Cyclopropyl-2H-pyrazol-3-yl)-[2-(3-methylphenylsulfanyl)-quinazolin-4-yl]-amine], the pKi in data set [1], in data set [3] and in data set [2] (read-out: Ki value on SRC) was over 7.00 throughout.
Turning to `COc1cccc(Sc2nc(Nc3cc(C4CC4)[nH]n3)c3ccccc3n2)c1` [IIa-24, (5-Cyclopropyl-2H-pyrazol-3-yl)-[2-(3-methoxyphenylsulfanyl)-quinazolin-4-yl]-amine], the pKi in data set [1], in data set [3] and in data set [2] (read-out: Ki value on SRC) was over 7.00 each time.
The compound `c1ccc2cc(Sc3nc(Nc4cc(C5CC5)[nH]n4)c4ccccc4n3)ccc2c1` [IIa-27, (5-Cyclopropyl-2H-pyrazol-3-yl)-[2-(naphtalen-2-ylsulfanyl)-quinazolin-4-yl]-amine] had a melting point of 285 to 288 °C. In data set [3], this compound had a negative logarithm of the Ki (pKi) of over 7.00. In data set [2] (read-out: Ki value on SRC), the pKi was over 7.00.
Take `Fc1ccc(Sc2nc(Nc3cc(C4CC4)[nH]n3)c3ccccc3n2)c(F)c1` [IIa-28, (5-Cyclopropyl-2H-pyrazol-3-yl)-[2-(2,4-difluorophenylsulfanyl)-quinazolin-4-yl]-amine]: the melting point lay within 250 to 253 °C. Moreover, the pKi in data set [1] was over 7.00. Also, the pKi in data set [3] was over 7.00. Moreover, the pKi in data set [2] (read-out: Ki value on SRC) was over 7.00.
In turn, `Clc1cccc(Sc2nc(Nc3cc(C4CC4)[nH]n3)c3ccccc3n2)c1Cl` [IIa-30, (5-Cyclopropyl-2H-pyrazol-3-yl)-[2-(2,3-dichlorophenylsulfanyl)-quinazolin-4-yl]-amine] had a melting point of 250 to 252 °C. This compound had a pKi in data set [1] of over 7.00. For the same compound, the pKi in data set [3] is over 7.00. Further, the pKi in data set [2] (read-out: Ki value on SRC) is over 7.00.
Consider `Clc1cccc(Sc2nc(Nc3cc(C4CC4)[nH]n3)c3ccccc3n2)c1` [IIa-31, [2-(3-Chlorophenylsulfanyl)-quinazolin-4-yl]-(5-cyclopropyl-2H-pyrazol-3-yl)-amine], for which the melting point was 235 to 238 °C. The pKi in data set [1] was over 7.00. The same compound showed a pKi in data set [3] of over 7.00. Also, the pKi in data set [2] (read-out: Ki value on SRC) is over 7.00.
On to `Clc1ccccc1Sc1nc(Nc2cc(C3CC3)[nH]n2)c2ccccc2n1` [IIa-32, [2-(2-Chlorophenylsulfanyl)-quinazolin-4-yl]-(5-cyclopropyl-2H-pyrazol-3-yl)-amine], for which the melting point fell in the range of 255 to 257 °C. For the same compound, in data set [1], the negative-log Ki (pKi) was over 7.00. In addition, the pKi in data set [3] is over 7.00. Moreover, in data set [2] (read-out: Ki value on SRC), the pKi was over 7.00.
As for `Cc1ccc(Sc2nc(Nc3cc(C4CC4)[nH]n3)c3ccccc3n2)cc1C` [IIa-33, (5-Cyclopropyl-2H-pyrazol-3-yl)-[2-(3,4-dimethylphenylsulfanyl)-quinazolin-4-yl]-amine], the melting point was in the range of 255 to 256 °C. The same compound had a pKi in data set [3] of over 7.00. For the same compound, the pKi in data set [2] (read-out: Ki value on SRC) is over 7.00.
As for `CC(=O)Nc1ccc(Sc2nc(Nc3cc(C)n[nH]3)c3ccc(OCCCN4CCOCC4)cc3n2)cc1` [IIa-45, [2-(4-Acetamidophenylsulfanyl)-7-(3-morpholin-4-yl-propoxy)-quinazolin-4-yl]-(5-methyl-2H-pyrazol-3-yl)-amine], the melting point was 153 °C (dec.). In data set [1], the pKi was 5.15 to 6.00. Further, the pKi in data set [3] was over 7.00. The pKi in data set [2] (read-out: Ki value for SRC) was 5.22 to 6.00.
The compound `Cc1cc(Nc2nc(Sc3ccc(NS(=O)(=O)C(C)C)cc3)nc3ccccc23)n[nH]1` [IIa-48, [2-(4-Isopropanesulfonylamino-phenylsulfanyl)-quinazolin-4-yl]-(5-methyl-2H-pyrazol-3-yl)-amine] registered a melting point of 294 to 297 °C. In data set [1], this compound had a pKi of 6.00 to 7.00. Also, in data set [3], the pKi is over 7.00. In addition, the pKi in data set [2] (read-out: Ki value for SRC) is 5.22 to 6.00.
Compound `CCS(=O)(=O)Nc1ccc(Sc2nc(Nc3cc(C)[nH]n3)c3ccccc3n2)cc1` [IIa-55, [2-(4-Ethylsulfonylamino-phenylsulfanyl)-quinazolin-4-yl]-(5-methyl-2H-pyrazol-3-yl)-amine] showed a melting point of 279 to 280 °C. Further, the negative-log Ki (pKi) in data set [1] is 6.00 to 7.00. Moreover, the pKi in data set [3] was over 7.00. The pKi in data set [2] (read-out: Ki value for SRC) is 5.22 to 6.00.
Compound `Cc1cc(Nc2nc(Sc3ccc(C(=O)NCCCN(C)C)cc3)nc3ccccc23)n[nH]1` [IIa-70, {2-[4-(3-Dimethylamino-propylcarbamoyl)-phenylsulfanyl]-quinazolin-4-yl}-(5-methyl-2H-pyrazol-3-yl)-amine] displayed a melting point of 210 to 213 °C. This compound also gave a pKi in data set [3] of 6.00 to 7.00. For the same compound, the pKi in data set [2] (read-out: Ki value for SRC) was 5.22 to 6.00.
`c1ccc2c(Nc3cc(C4CC4)[nH]n3)nc(Oc3ccc4c(c3)CCCC4)nc2c1` [IIb-4, (5-Cyclopropyl-2H-pyrazol-3-yl)-[2-(5,6,7,8-tetrahydronaphthalen-2-yloxy)-quinazolin-4-yl]-amine] returned a melting point of 277 to 279 °C. Further, the pKi in data set [3] is over 7.00. The pKi in data set [2] (read-out: Ki value on SRC) is over 7.00.
Turning to `COC(=O)c1cccc(Oc2nc(Nc3cc(C)[nH]n3)c3ccccc3n2)c1` [IIb-9, [2-(3-Methoxycarbonylphenoxy)-quinazolin-4-yl]-(5-methyl-2H-pyrazol-3-yl)-amine], the pKi is 6.00 to 7.00 in data set [1], over 7.00 in data set [3] and 5.22 to 6.00 in data set [2] (read-out: Ki value for SRC).
As for `Cc1cc(Nc2nc(NCc3ccc(F)cc3)nc3ccccc23)n[nH]1` [IIc-13, [2-(4-Fluorobenzylamino)-quinazolin-4-yl]-(5-methyl-2H-pyrazol-3-yl)-amine], the pKi in data set [1] was 6.00 to 7.00; in data set [3], over 7.00; in data set [2] (read-out: Ki value on SRC), over 7.00.
